In patent US4636520A, “Antifungal composition employing pyrrolnitrin in combination with an imidazole compound” (Fujisawa Pharmaceutical Co., Ltd., priority 1984, dated 1987):
Values after ≈ are worked out from the molar mass of the structure shown. Like-named read-outs stand apart in the source and are kept apart here. One block for each molecule: values may come before it.

How the values were obtained:
Format in all cases: cell-based
Candida albicans FP580 [1] = test: Antimicrobial test 1 (agar plate MIC), organism d
Protocol: (§1) Pyrrolnitrin (PY) alone, clotrimazole (CL) alone, a 2:1 mixture of PY and CL, a 1:1 mixture of PY and CL and 1:2 mixture of PY and CL were tested for antimicrobial activity in various strains of microorganisms.
(§2) d: Candida albicans FP580
(§3) Composition A: PY (10 mg) was dissolved in 1 ml of ethanol, and the solution is mixed with 9 ml of sterilized water to give a milk-white suspension.
(§4) Composition B: CL (10 mg) was dissolved in 1 ml of N,N-dimethylformamide, and the solution was mixed with 9 ml of sterilized water to give a milk-white suspension.
(§5) Composition C: The above Compositions A and B were mixed together in a volume ratio of 2:1 to give a suspension. […]
(§6) Plates with varied active ingredient concentrations were prepared by admixing each of Compositions A-E prepared in the above manner with Sabouraud agar medium (for test organisms a-f) or Mueller-Hinton medium (for test organism g), followed by appropriate dilution with the medium. These plates were inoculated respectively with each of the test organisms a-g and incubated under the conditions given below, and the minimum inhibitory concentration (MIC; μg/ml) at which the growth of each test organism is inhibited was determined. […]
(§7) The FIC indexes given in the parentheses of Tables 1 and 2 were calculated by using the following formulas. […]

[2] = system: Staphylococcus epidermidis 91; test: Antimicrobial test 1 (agar plate MIC), organism g
Protocol: as §1
g: Staphylococcus epidermidis 91
as §3, §4, §5, §6, §7

Candida albicans FP578 = test: Antimicrobial test 1 (agar plate MIC), organism b
Protocol: as §1
b: Candida albicans FP578
as §3, §4, §5, §6, §7

Candida albicans FP579 = test: Antimicrobial test 1 (agar plate MIC), organism c
Protocol: as §1
c: Candida albicans FP579
as §3, §4, §5, §6, §7

Candida albicans Yu-1200 [3] = test: Antimicrobial test 1 (agar plate MIC), organism a
Protocol: as §1
(§8) a: Candida albicans Yu-1200
as §3, §4, §5, §6, §7

[4] = system: Aspergillus oryzae IFO 5239; test: Antimicrobial test 1 (agar plate MIC), organism f; details: IFO5239, 168 h
Protocol: as §1
f: Aspergillus oryzae IFO 5239
as §3, §4, §5, §6, §7

Candida albicans FP581 = test: Antimicrobial test 1 (agar plate MIC), organism e
Protocol: as §1
e: Candida albicans FP581
as §3, §4, §5, §6, §7

Candida albicans Yu-1200 [5] = test: Antimicrobial test 2 (agar plate MIC), organism a
Protocol: (§9) Pyrrolnitrin (PY) alone, clotrimazole (CL) alone, miconazole alone, econazole alone, oxyconazole alone and 1:1 mixtures of PY and CL, PY and miconazole, PY and econazole and PY and oxyconazole were test for antimicrobial activity in various strains of microorganisms.
as §8
(§10) Compositions A was prepared as stated above.
(§11) Composition F, G and H: A milk-white suspension containing 10 mg of miconazole (Composition F), a transparent solution containing 10 mg of econazole (Composition G) and a milk-white suspension containing 10 mg of oxyconazole (Composition H) were respectively prepared in a similar way to that of Composition B.
(§12) Composition I: The above-mentioned Compositions A and F were mixed together in a volume ratio of 1:1 to give a suspension.
(§13) Composition J: The above-mentioned Compositions A and G were mixed together in a volume ratio of 1:1 to give a suspension.
(§14) Composition K: The above-mentioned Compositions A and H were mixed together in a volume ratio of 1:1 to give a suspension.
(§15) Plates with varied active ingredient concentrations were prepared by admixing each of Compositions A and F to K prepared in the above manner with Sabouraud agar medium, followed by appropriate dilution with the medium. These plates were inoculated respectively with each of the test organisms a and d and incubated at 30° C. for 48 hours. The minimum inhibitory concentration (MIC; μg/ml) at which the growth of each test organism is inhibited was determined.
(§16) The FIC indexes given in the parentheses of Tables 1 and 2 were calculated by using the following formulas. [formula]

Candida albicans FP580 [6] = test: Antimicrobial test 2 (agar plate MIC), organism d
Protocol: as §9, §2, §10, §11, §12, §13, §14, §15, §16

SMILES: Clc1ccccc1C(c1ccccc1)(c1ccccc1)n1ccnc1 [Composition B, 1-[(2-chlorophenyl)diphenylmethyl]-1H-imidazole]
MIC (Candida albicans FP580 [1]; Candida albicans, FP580, 24 h): 6.25 µg/mL (≈ 18.1 µM)
MIC ([2]; Staphylococcus epidermidis, 91, 20 h): 25 µg/mL (≈ 72.5 µM)
MIC (Candida albicans FP578; Candida albicans, FP578, 24 h): 6.25 µg/mL (≈ 18.1 µM)
MIC (Candida albicans FP579; Candida albicans, FP579, 24 h): 6.25 µg/mL (≈ 18.1 µM)
MIC (Candida albicans Yu-1200 [3]; Candida albicans, YU1200, 24 h): 6.25 µg/mL (≈ 18.1 µM)
MIC ([4]; Aspergillus oryzae): 12.5 µg/mL (≈ 36.2 µM)
MIC (Candida albicans FP581; Candida albicans, FP581, 24 h): 25 µg/mL (≈ 72.5 µM)

SMILES: Clc1ccc(COC(Cn2ccnc2)c2ccc(Cl)cc2Cl)c(Cl)c1 (stereo not shown) [Composition F, 1-[2-(2,4-dichlorophenyl)-2-[(2,4-dichlorophenyl)methoxy]ethyl]-1H-imidazole]
MIC (Candida albicans Yu-1200 [5]; Candida albicans, YU1200, 48 h): 6.25 µg/mL (≈ 15 µM)
MIC (Candida albicans FP580 [6]; Candida albicans, FP580, 48 h): 12.5 µg/mL (≈ 30 µM)

SMILES: Clc1ccc(C(Cn2ccnc2)=NOCc2ccc(Cl)cc2Cl)cc1 [Composition H]
MIC (Candida albicans Yu-1200 [5]; Candida albicans Yu-1200, Sabouraud agar, 30° C., 48 hours): 25 µg/mL (≈ 63.3 µM)
MIC (Candida albicans FP580 [6]; Candida albicans FP580, Sabouraud agar, 30° C., 48 hours): 25 µg/mL (≈ 63.3 µM)

MIC (Candida albicans FP580 [1]; Candida albicans FP580, Sabouraud agar, 37° C., 24 hours, read-out: MIC): 1.56 µg/mL (≈ 6.07 µM)
MIC (Candida albicans Yu-1200 [5]; YU1200, Candida albicans Yu-1200, Sabouraud agar, 30° C., 48 hours, read-out: MIC): 100 µg/mL (≈ 389 µM)
MIC ([2]; Staphylococcus epidermidis 91, Mueller-Hinton medium, 37° C., 20 hours, read-out: MIC): 100 µg/mL (≈ 389 µM)
MIC (Candida albicans FP578; Candida albicans FP578, Sabouraud agar, 37° C., 24 hours, read-out: MIC): 3.13 µg/mL (≈ 12.2 µM)
MIC (Candida albicans FP579; Candida albicans FP579, Sabouraud agar, 37° C., 24 hours, read-out: MIC): 25 µg/mL (≈ 97.2 µM)
MIC (Candida albicans Yu-1200 [3]; YU1200, Candida albicans Yu-1200, Sabouraud agar, 37° C., 24 hours, read-out: MIC): 100 µg/mL (≈ 389 µM)
MIC ([4]; Aspergillus oryzae IFO 5239, Sabouraud agar, 30° C., 1 week, read-out: MIC): > 100 µg/mL
MIC (Candida albicans FP581; Candida albicans FP581, Sabouraud agar, 37° C., 24 hours, read-out: MIC): > 100 µg/mL
MIC (Candida albicans FP580 [6]; Candida albicans FP580, Sabouraud agar, 30° C., 48 hours, read-out: MIC): 0.78 µg/mL (≈ 3.03 µM)
SMILES: O=[N+]([O-])c1c(Cl)cccc1-c1c[nH]cc1Cl [Composition A, 3-(2-nitro-3-chlorophenyl)-4-chloropyrrole]

SMILES: Clc1ccc(COC(Cn2ccnc2)c2ccc(Cl)cc2Cl)cc1 (stereo not shown) [Composition G, 1-[2-[(4-chlorophenyl)methoxy]-2-(2,4-dichlorophenyl)ethyl]-1H-imidazole]
MIC (Candida albicans Yu-1200 [5]; Candida albicans, YU1200, 48 h): 6.25 µg/mL (≈ 16.4 µM)
MIC (Candida albicans FP580 [6]; Candida albicans, FP580, 48 h): 6.25 µg/mL (≈ 16.4 µM)
